# According to ChEMBL document CHEMBL4270550, “Synthesis of pyrazolo[3,4-d]pyrimidin-4(5H)-ones tethered to 1,2,3-triazoles and their evaluation as potential anticancer agents” (2018):
# How the values were obtained:
# [1] = test system: C6; assay: Antiproliferative activity against rat C6 cells at 10 uM after 48 hrs by MTT assay relative to control; type: functional
# [2] = test system: U-87 MG; assay: Antiproliferative activity against human U87 cells at 10 uM after 48 hrs by MTT assay relative to control; type: functional, U-87MG ATCC
# [3] = test system: U-87 MG; assay: Cell cycle arrest in human U87 cells assessed as accumulation of cells at G0/G1 phase at 10 uM after 48 hrs by propidium iodide staining-based flow cytometric analysis (reference value: 71.7%); type: functional, U-87MG ATCC
# [4] = test system: U-87 MG; assay: Cell cycle arrest in human U87 cells assessed as accumulation of cells at G2/M phase at 10 uM after 48 hrs by propidium iodide staining-based flow cytometric analysis (reference value: 19.4%); type: functional, U-87MG ATCC
# [5] = test system: U-87 MG; assay: Cell cycle arrest in human U87 cells assessed as accumulation of cells at S phase at 10 uM after 48 hrs by propidium iodide staining-based flow cytometric analysis (reference value: 8.95%); type: functional, U-87MG ATCC
# [6] = test system: U-87 MG; assay: Cell cycle arrest in human U87 cells assessed as accumulation of cells at G0/G1 phase at 25 uM after 48 hrs by propidium iodide staining-based flow cytometric analysis (reference value: 71.7%); type: functional, U-87MG ATCC
# [7] = test system: U-87 MG; assay: Cell cycle arrest in human U87 cells assessed as accumulation of cells at G2/M phase at 25 uM after 48 hrs by propidium iodide staining-based flow cytometric analysis (reference value: 19.4%); type: functional, U-87MG ATCC
# [8] = test system: U-87 MG; assay: Cell cycle arrest in human U87 cells assessed as accumulation of cells at S phase at 25 uM after 48 hrs by propidium iodide staining-based flow cytometric analysis (reference value: 8.95%); type: functional, U-87MG ATCC
# [9] = test system: U-87 MG; assay: Cell cycle arrest in human U87 cells assessed as accumulation of cells at G0/G1 phase at 50 uM after 48 hrs by propidium iodide staining-based flow cytometric analysis (reference value: 71.7%); type: functional, U-87MG ATCC
# [10] = test system: U-87 MG; assay: Cell cycle arrest in human U87 cells assessed as accumulation of cells at G2/M phase at 50 uM after 48 hrs by propidium iodide staining-based flow cytometric analysis (reference value: 19.4%); type: functional, U-87MG ATCC
# [11] = test system: U-87 MG; assay: Cell cycle arrest in human U87 cells assessed as accumulation of cells at S phase at 50 uM after 48 hrs by propidium iodide staining-based flow cytometric analysis (reference value: 8.95%); type: functional, U-87MG ATCC
# [12] = test system: C6; assay: Antiproliferative activity against rat C6 cells after 48 hrs by MTT assay; type: functional, cell-based
# [13] = test system: U-87 MG; assay: Antiproliferative activity against human U87 cells after 48 hrs by MTT assay; type: functional, cell-based; conditions: U-87MG ATCC
# [14] = test system: U-87 MG; assay: Induction of apoptosis in human U87 cells after 48 hrs by propidium iodide staining-based flow cytometric analysis; type: functional, cell-based; conditions: U-87MG ATCC
# [15] = test system: U-87 MG; assay: Induction of apoptosis in human U87 cells assessed as increase in caspase3 expression by Western blot analysis; type: functional, cell-based; conditions: U-87MG ATCC
# [16] = test system: U-87 MG; assay: Induction of apoptosis in human U87 cells assessed as increase in cleaved PARP levels by Western blot analysis; type: functional, cell-based; conditions: U-87MG ATCC
# [17] = test system: U-87 MG; assay: Induction of apoptosis in human U87 cells assessed as increase in p53 levels by Western blot analysis; type: functional, cell-based; conditions: U-87MG ATCC
Structure (SMILES),Activity [1] [%],Activity [2] [%],also measured
Cc1cccc(-n2cc(Cn3cnc4c(cnn4-c4ccc(Cl)cc4)c3=O)nn2)c1C,35.91,54.42,
O=c1c2cnn(-c3ccc(Cl)cc3)c2ncn1Cc1cn(-c2ccccc2F)nn1,,21.31,
O=c1c2cnn(-c3ccccc3)c2ncn1Cc1cn(-c2ccccc2)nn1,34.1,52.34,
O=c1c2cnn(-c3ccccc3)c2ncn1Cc1cn(-c2ccccc2F)nn1,,46.35,
O=c1c2cnn(-c3ccccc3)c2ncn1Cc1cn(-c2cccc(Cl)c2)nn1,17.87,47.69,Activity [3]: 73.3%; Activity [4]: 12.52%; Activity [5]: 14.18%; Activity [6]: 80.8%; Activity [7]: 2.03%; Activity [8]: 17.13%; Activity [9]: 62.6%; Activity [10]: 0.08%; Activity [11]: 37.4%; Activity [12]: Dose-dependent effect; Activity [13]: Dose-dependent effect; Activity [14]: Dose-dependent effect; Activity [15]: Dose-dependent effect; Activity [16]: Dose-dependent effect; Activity [17]: Dose-dependent effect
O=c1c2cnn(-c3ccc(Cl)cc3)c2ncn1Cc1cn(-c2ccccc2)nn1,,40.98,
COc1ccccc1-n1cc(Cn2cnc3c(cnn3-c3ccccc3)c2=O)nn1,4.91,15.7,
Cc1cccc(-n2cc(Cn3cnc4c(cnn4-c4ccccc4)c3=O)nn2)c1C,,40.6,
Cc1ccc(-n2cc(Cn3cnc4c(cnn4-c4ccccc4)c3=O)nn2)cc1,16.87,41.62,
O=c1c2cnn(-c3ccc(Cl)cc3)c2ncn1Cc1cn(-c2cccc(Cl)c2)nn1,9.55,47.29,
Cc1ccccc1-n1cc(Cn2cnc3c(cnn3-c3ccccc3)c2=O)nn1,13.64,21.32,
COc1ccccc1-n1cc(Cn2cnc3c(cnn3-c3ccc(Cl)cc3)c2=O)nn1,16.37,32.98,
